Numbers after ± are expanded uncertainties.
Assay: osmotic coefficient (dimensionless); mn = molality of the nth substance listed, in mol/kg
Conditions: Liquid, isopiestic method

NCC(=O)O [2-aminoacetic acid] + O
osmotic coefficient (288.15 K, m1 = 0.2174): 0.9554 ± 0.0022
osmotic coefficient (288.15 K, m1 = 0.2178): 0.9554 ± 0.0022
osmotic coefficient (288.15 K, m1 = 0.3075): 0.946 ± 0.0027
osmotic coefficient (288.15 K, m1 = 0.3078): 0.946 ± 0.0027
osmotic coefficient (288.15 K, m1 = 0.5175): 0.9341 ± 0.0033
osmotic coefficient (288.15 K, m1 = 0.5178): 0.934 ± 0.0033
osmotic coefficient (288.15 K, m1 = 0.6241): 0.9302 ± 0.0035
osmotic coefficient (288.15 K, m1 = 0.6251): 0.9302 ± 0.0035
osmotic coefficient (288.15 K, m1 = 0.8647): 0.9219 ± 0.0039
osmotic coefficient (288.15 K, m1 = 0.8654): 0.9219 ± 0.0039
osmotic coefficient (288.15 K, m1 = 1.193): 0.9166 ± 0.0042
osmotic coefficient (288.15 K, m1 = 1.194): 0.9166 ± 0.0042
osmotic coefficient (293.15 K, m1 = 0.2074): 0.9705 ± 0.0015
osmotic coefficient (293.15 K, m1 = 0.2076): 0.9705 ± 0.0015
osmotic coefficient (293.15 K, m1 = 0.3572): 0.9556 ± 0.0022
osmotic coefficient (293.15 K, m1 = 0.3577): 0.9555 ± 0.0022
osmotic coefficient (293.15 K, m1 = 0.5277): 0.9428 ± 0.0029
osmotic coefficient (293.15 K, m1 = 0.5284): 0.9428 ± 0.0029
osmotic coefficient (293.15 K, m1 = 0.8498): 0.9282 ± 0.0036
osmotic coefficient (293.15 K, m1 = 0.8508): 0.9282 ± 0.0036
osmotic coefficient (293.15 K, m1 = 1.027): 0.924 ± 0.0038
osmotic coefficient (293.15 K, m1 = 1.028): 0.924 ± 0.0038
osmotic coefficient (293.15 K, m1 = 1.298): 0.9202 ± 0.004
osmotic coefficient (293.15 K, m1 = 1.299): 0.9202 ± 0.004
osmotic coefficient (298.15 K, m1 = 0.2274): 0.9815 ± 0.0009
osmotic coefficient (298.15 K, m1 = 0.2276): 0.981 ± 0.001
osmotic coefficient (298.15 K, m1 = 0.3213): 0.9767 ± 0.0012
osmotic coefficient (298.15 K, m1 = 0.3214): 0.9764 ± 0.0012
osmotic coefficient (298.15 K, m1 = 0.5417): 0.9583 ± 0.0021
osmotic coefficient (298.15 K, m1 = 0.7869): 0.9461 ± 0.0027
osmotic coefficient (298.15 K, m1 = 0.7878): 0.945 ± 0.0028
osmotic coefficient (298.15 K, m1 = 0.8048): 0.9442 ± 0.0028
osmotic coefficient (298.15 K, m1 = 0.8059): 0.9432 ± 0.0028
osmotic coefficient (298.15 K, m1 = 1.139): 0.9297 ± 0.0035
osmotic coefficient (298.15 K, m1 = 1.14): 0.9295 ± 0.0035
osmotic coefficient (303.15 K, m1 = 0.203): 0.9873 ± 0.0006
osmotic coefficient (303.15 K, m1 = 0.2037): 0.9872 ± 0.0006
osmotic coefficient (303.15 K, m1 = 0.3379): 0.9781 ± 0.0011
osmotic coefficient (303.15 K, m1 = 0.3388): 0.9781 ± 0.0011
osmotic coefficient (303.15 K, m1 = 0.5346): 0.966 ± 0.0017
osmotic coefficient (303.15 K, m1 = 0.535): 0.9659 ± 0.0017
osmotic coefficient (303.15 K, m1 = 0.7489): 0.9539 ± 0.0023
osmotic coefficient (303.15 K, m1 = 0.7501): 0.9538 ± 0.0023
osmotic coefficient (303.15 K, m1 = 0.854): 0.9483 ± 0.0026
osmotic coefficient (303.15 K, m1 = 0.8547): 0.9483 ± 0.0026
osmotic coefficient (303.15 K, m1 = 1.044): 0.9384 ± 0.0031
osmotic coefficient (303.15 K, m1 = 1.045): 0.9384 ± 0.0031

CCC(N)C(=O)O (stereo not drawn) [(.+-.)-α-aminobutyric acid] + O
osmotic coefficient (288.15 K, m1 = 0.2191): 0.9642 ± 0.0018
osmotic coefficient (288.15 K, m1 = 0.2194): 0.9642 ± 0.0018
osmotic coefficient (288.15 K, m1 = 0.3053): 0.9569 ± 0.0022
osmotic coefficient (288.15 K, m1 = 0.3055): 0.9569 ± 0.0022
osmotic coefficient (288.15 K, m1 = 0.5076): 0.9529 ± 0.0024
osmotic coefficient (288.15 K, m1 = 0.5082): 0.953 ± 0.0024
osmotic coefficient (288.15 K, m1 = 0.595): 0.9567 ± 0.0022
osmotic coefficient (288.15 K, m1 = 0.596): 0.9567 ± 0.0022
osmotic coefficient (288.15 K, m1 = 0.7815): 0.9748 ± 0.0013
osmotic coefficient (288.15 K, m1 = 0.7821): 0.9749 ± 0.0013
osmotic coefficient (288.15 K, m1 = 1.057): 1.025 ± 0.0012
osmotic coefficient (288.15 K, m1 = 1.059): 1.025 ± 0.0013
osmotic coefficient (293.15 K, m1 = 0.2031): 0.9894 ± 0.0005
osmotic coefficient (293.15 K, m1 = 0.2034): 0.9894 ± 0.0005
osmotic coefficient (293.15 K, m1 = 0.3484): 0.9811 ± 0.0009
osmotic coefficient (293.15 K, m1 = 0.3492): 0.9811 ± 0.0009
osmotic coefficient (293.15 K, m1 = 0.508): 0.9744 ± 0.0013
osmotic coefficient (293.15 K, m1 = 0.5086): 0.9744 ± 0.0013
osmotic coefficient (293.15 K, m1 = 0.8066): 0.9819 ± 0.0009
osmotic coefficient (293.15 K, m1 = 0.8078): 0.982 ± 0.0009
osmotic coefficient (293.15 K, m1 = 0.9443): 1.0001 ± 0.0001
osmotic coefficient (293.15 K, m1 = 0.9453): 1.0003 ± 0.0001
osmotic coefficient (293.15 K, m1 = 1.139): 1.048 ± 0.0024
osmotic coefficient (293.15 K, m1 = 1.14): 1.049 ± 0.0024
osmotic coefficient (298.15 K, m1 = 0.2217): 1.0067 ± 0.0003
osmotic coefficient (298.15 K, m1 = 0.2219): 1.0058 ± 0.0003
osmotic coefficient (298.15 K, m1 = 0.3106): 1.0103 ± 0.0005
osmotic coefficient (298.15 K, m1 = 0.3109): 1.0093 ± 0.0005
osmotic coefficient (298.15 K, m1 = 0.5105): 1.0168 ± 0.0008
osmotic coefficient (298.15 K, m1 = 0.5108): 1.0163 ± 0.0008
osmotic coefficient (298.15 K, m1 = 0.5636): 1.0164 ± 0.0008
osmotic coefficient (298.15 K, m1 = 0.5637): 1.0162 ± 0.0008
osmotic coefficient (298.15 K, m1 = 0.7428): 1.023 ± 0.0012
osmotic coefficient (298.15 K, m1 = 0.7434): 1.023 ± 0.0011
osmotic coefficient (298.15 K, m1 = 1.022): 1.036 ± 0.0018
osmotic coefficient (298.15 K, m1 = 1.023): 1.036 ± 0.0018
osmotic coefficient (303.15 K, m1 = 0.2054): 1.0072 ± 0.0004
osmotic coefficient (303.15 K, m1 = 0.206): 1.0073 ± 0.0004
osmotic coefficient (303.15 K, m1 = 0.3334): 1.0133 ± 0.0007
osmotic coefficient (303.15 K, m1 = 0.3335): 1.0133 ± 0.0007
osmotic coefficient (303.15 K, m1 = 0.5083): 1.0187 ± 0.0009
osmotic coefficient (303.15 K, m1 = 0.5087): 1.0187 ± 0.0009
osmotic coefficient (303.15 K, m1 = 0.7146): 1.025 ± 0.0012
osmotic coefficient (303.15 K, m1 = 0.7157): 1.025 ± 0.0012
osmotic coefficient (303.15 K, m1 = 0.8091): 1.029 ± 0.0015
osmotic coefficient (303.15 K, m1 = 0.8092): 1.029 ± 0.0015
osmotic coefficient (303.15 K, m1 = 1.03): 1.046 ± 0.0023
osmotic coefficient (303.15 K, m1 = 1.031): 1.046 ± 0.0023

CC(N)C(=O)O (stereo not drawn) [DL-2-aminopropanoic acid] + O
osmotic coefficient (288.15 K, m1 = 0.2159): 0.9497 ± 0.0026
osmotic coefficient (288.15 K, m1 = 0.2163): 0.9496 ± 0.0026
osmotic coefficient (288.15 K, m1 = 0.3062): 0.944 ± 0.0027
osmotic coefficient (288.15 K, m1 = 0.3066): 0.944 ± 0.0027
osmotic coefficient (288.15 K, m1 = 0.5085): 0.9513 ± 0.0026
osmotic coefficient (288.15 K, m1 = 0.5093): 0.9514 ± 0.0026
osmotic coefficient (288.15 K, m1 = 0.6031): 0.9603 ± 0.0024
osmotic coefficient (288.15 K, m1 = 0.6037): 0.9603 ± 0.0024
osmotic coefficient (288.15 K, m1 = 0.8076): 0.9837 ± 0.0021
osmotic coefficient (288.15 K, m1 = 0.8082): 0.9838 ± 0.0021
osmotic coefficient (288.15 K, m1 = 1.098): 1.01
osmotic coefficient (293.15 K, m1 = 0.2061): 0.9725 ± 0.0022
osmotic coefficient (293.15 K, m1 = 0.2068): 0.9724 ± 0.0022
osmotic coefficient (293.15 K, m1 = 0.3536): 0.9656 ± 0.0023
osmotic coefficient (293.15 K, m1 = 0.354): 0.9656 ± 0.0023
osmotic coefficient (293.15 K, m1 = 0.5134): 0.9677 ± 0.0022
osmotic coefficient (293.15 K, m1 = 0.5145): 0.9677 ± 0.0022
osmotic coefficient (293.15 K, m1 = 0.8192): 0.9905 ± 0.002
osmotic coefficient (293.15 K, m1 = 0.8199): 0.9905 ± 0.002
osmotic coefficient (293.15 K, m1 = 0.9719): 1.007 ± 0.002
osmotic coefficient (293.15 K, m1 = 0.9725): 1.007 ± 0.002
osmotic coefficient (293.15 K, m1 = 1.185): 1.029 ± 0.0023
osmotic coefficient (293.15 K, m1 = 1.186): 1.029 ± 0.0023
osmotic coefficient (298.15 K, m1 = 0.2238): 0.9972 ± 0.002
osmotic coefficient (298.15 K, m1 = 0.2243): 0.9954 ± 0.002
osmotic coefficient (298.15 K, m1 = 0.3134): 0.9976 ± 0.002
osmotic coefficient (298.15 K, m1 = 0.3135): 0.9972 ± 0.002
osmotic coefficient (298.15 K, m1 = 0.52): 0.9983 ± 0.002
osmotic coefficient (298.15 K, m1 = 0.5203): 0.9977 ± 0.002
osmotic coefficient (298.15 K, m1 = 0.5759): 0.9986 ± 0.002
osmotic coefficient (298.15 K, m1 = 0.5762): 0.9982 ± 0.002
osmotic coefficient (298.15 K, m1 = 0.7604): 0.9998 ± 0.002
osmotic coefficient (298.15 K, m1 = 0.7609): 0.9991 ± 0.002
osmotic coefficient (298.15 K, m1 = 1.056): 1
osmotic coefficient (303.15 K, m1 = 0.207): 1.004 ± 0.002
osmotic coefficient (303.15 K, m1 = 0.2076): 1.004 ± 0.002
osmotic coefficient (303.15 K, m1 = 0.3362): 1.004 ± 0.002
osmotic coefficient (303.15 K, m1 = 0.3364): 1.004 ± 0.002
osmotic coefficient (303.15 K, m1 = 0.5119): 1.004 ± 0.002
osmotic coefficient (303.15 K, m1 = 0.5129): 1.004 ± 0.002
osmotic coefficient (303.15 K, m1 = 0.7159): 1.006 ± 0.002
osmotic coefficient (303.15 K, m1 = 0.7166): 1.006 ± 0.002
osmotic coefficient (303.15 K, m1 = 0.8218): 1.01 ± 0.002
osmotic coefficient (303.15 K, m1 = 0.8221): 1.01 ± 0.002
osmotic coefficient (303.15 K, m1 = 1.038): 1.02

Reference: the NIST ThermoML archive (doi:10.1016/j.fluid.2006.10.012)
